# Assay results reported in paper PMC9785144, “Metal Coordination and Biological Screening of a Schiff Base Derived from 8-Hydroxyquinoline and Benzothiazole” (Pharmaceutics, 2022).
# What was measured:
# [1] = test system: HCT-116 cell line; parameters: method as in PMID 26961176; details: cited from earlier work
# [2] = test system: cancer cells; details: in vitro; cited from earlier work
# [3] = test system: HCT-116 cells; experiment: Wound-healing migration assay, HCT-116; type: cell-based, human; details: HCT-116, 40 μM, at 22 h (control 50%)
# Description: To assess cellular migration in the presence or absence of tested compounds, HCT-116 and CT-26 cells were plated at 1.5 × 10^5 and 3 × 10^5 cells/mL in a 12-well plate (1 mL/well) and were allowed to adhere and grow until reaching around 80–90% confluence. A sterile 10 μL pipette tip was used to wound the cell monolayer, followed by a washing step with PBS to remove debris. Then, cells were incubated with the tested compounds suspended in RPMI-1640 (CT-26) or DMEM media (HCT-116) supplemented with 2% FBS and 100 IU/mL of penicillin and 100 μg/mL streptomycin (Gibco, Thermo Fisher Scientific, Waltham, MA, USA), and hereafter designated as RPMI 2% and DMEM 2%, respectively. Under the above mentioned culture conditions, CT-26 cells were incubated with [Ni(HL)(acetate)] or [Ru(HL)Cl(DMSO)] at concentrations of 10 and 15 μM, respectively. […] The positive control, 5-FU, was tested at 1.5 and 40 μM for CT-26 and HCT-116, respectively. Negative control group was constituted by cells maintained in RPMI 2% (CT-26) and DMEM 2% (HCT-116). Images of the wound closure were taken beneath the stage of a Zeiss Axiovert 200 inverted microscope, using a 10× objective and a digital camera (CoolSNAP EZ, Photometrics, Huntington Beach, CA, USA) and recorded by the Metafluor Software at 0, 2, 4, 8, 18, 20 and 22 h following cell monolayer scratching (Molecular Devices, Sunnyvale, CA, USA). […]
# [4] = test system: CT-26 cells; experiment: Guava ViaCount cell viability assay; type: cell-based, murine; details: CT-26, 48 h incubation
# Description: CT-26 cells were incubated with [Ni(HL)(acetate)] or [Ru(HL)Cl(DMSO)] at concentrations of 5 and 10 μM or 10 and 20 μM, respectively. For the HCT-116 cell line, the tested concentrations were 5 and 7.5 μM, and 7.5 and 12.5 μM, respectively. The positive control group, 5-FU, was tested at 0.5 and 2 μM, and at 20 and 40 μM for CT-26 and HCT-116, respectively. Negative control group was constituted by cells in the presence of complete culture medium. After a 48 h incubation period, cell culture supernatants were collected, and adherent cells were detached using TrypLE™ Express (Invitrogen). Detached cells were then added to supernatants and the wells were washed using PBS with 2% FBS to recover any remaining cells. The recovered suspension was added to the previously collected cells and supernatants and centrifuged for 5 min at 650× g. The supernatants were discarded, and cells were suspended in PBS with 2% FBS. Then, on a 96-well plate, 20 μL of cell suspension was incubated with 180 μL of Guava ViaCount® reagent (Merck Millipore, Darmstadt, Germany) for 5 min at r. t. Using a Guava EasyCyte 5HT Flow cytometer (Guava Technologies, Inc., Hayward, CA, USA), data were collected and analysed with the ViaCount software module with the acquisition of 10,000 events per sample. GraphPad Prism®8 was used to analyse cell proliferation (GraphPad Software, San Diego, CA, USA). […]
# [5] = test system: CT-26 colon cancer cells; experiment: MTT antiproliferative assay, CT-26; type: cell-based, murine; details: Mus musculus, CT26; CT-26, MTT, 48 h incubation
# Description: (§1) Murine colon cancer CT-26 (ATCC® CRL-263™) cells were cultured in RPMI-1640, supplemented with 10% foetal bovine serum (FBS) and 100 IU/mL of penicillin and 100 μg/mL streptomycin (Gibco, Thermo Fisher Scientific, Waltham, MA, USA), hereafter designated as complete culture medium. Human colon cancer HCT-116 (ATCC® CCL-247™), human melanoma A375 (ATCC® CCL-1619™), murine melanoma B16F10 (ATCC® CCL-6475™) cells and human epidermal keratinocytes (HaCaT) were maintained in Dulbecco’s modified Eagle’s medium (DMEM) with high-glucose (4500 mg/L) (Sigma-Aldrich, St. Louis, MO, USA), supplemented with 10% FBS and 100 IU/mL of penicillin and 100 μg/mL streptomycin (Gibco, Thermo Fisher Scientific, Waltham, MA, USA), also designated as complete culture medium. The cell lines were maintained at 37 °C in a 5% CO2 environment and cells were trypsinised every 2–3 days when 80% confluence was reached.
# (§2) Negative controls were cells maintained in complete culture medium.
# [6] = test system: HCT-116 cells; parameters: method as in PMID 34389368, PMID 34562873; details: HCT-116, concentrations around 20 μM; cited from earlier work
# [7] = test system: HCT-116 colon cancer cells; experiment: MTT antiproliferative assay, HCT-116; type: cell-based, human; details: Homo sapiens; HCT-116, MTT, 48 h incubation
# Description: as §1, §2
# [8] = Stability in PBS pH 7.4 without and with BSA (UV-vis); type: physicochemical; details: PBS pH 7.4, 25 °C, <1% DMSO, without BSA
# Description: The complexes were monitored for their stability in PBS, pH 7.4 at 25 °C in the absence and presence of equimolar amounts of bovine serum albumin (BSA). Stock solutions of each complex were prepared in DMSO and then diluted in PBS in order to obtain final concentrations of 20 to 30 µM and ensuring that the organic solvent was less than 1% (v/v). For the assays with BSA, stock solutions of the protein were prepared in PBS using 20 mg of lyophilised powder in 5 mL solvent, which were allowed to hydrate for 24 h in the refrigerator. Samples were monitored by UV-vis absorption spectroscopy for 6 h and a final measurement was also taken after 24 h.
# [9] = target: bovine serum albumin (BSA) (Bos taurus, UniProt P02769); experiment: Albumin binding by fluorescence quenching and circular dichroism; details: BSA ca. 20–25 μM, bands centred at ca. 360 nm, compound 5 to 70 μM
# Description: The concentration of BSA in the experiments was ca. 1.5 μM (in aqueous PBS). The fluorescence emission spectra were recorded between 310 and 575 nm, with λex = 295 nm. Successive additions of the complexes were done directly to the cuvette (optical path 1 cm) and the fluorescence emission spectra were recorded for each one under the same conditions. Blank assays for each sample, consisting in solutions with the same concentration of complex and no BSA, were recorded and subtracted to the corresponding emission spectra containing the fluorophore. The UV-vis spectra of the sample solutions were used to correct the emission spectra, minimizing inner filter and reabsorption phenomena interference.
# The concentration of BSA in the experiments was ca. 20–25 μM (in aqueous PBS). The circular dichroism (CD) spectra are an average of three scan accumulations, recorded between 300 and 500 nm, with bandwidth of 1 nm and response of 2 s, using a scanning speed of 100 nm/min. Successive additions of the complexes stock solutions in DMSO were done directly to the cuvette (1 cm) and the CD spectra were recorded under the same conditions after 10 min equilibration. Induced CD spectra were obtained as the CD spectrum of compound-BSA mixture minus the CD spectrum of BSA alone and are expressed as ellipticity in millidegrees.
# Chain of bovine serum albumin (BSA) (P02769 25-607): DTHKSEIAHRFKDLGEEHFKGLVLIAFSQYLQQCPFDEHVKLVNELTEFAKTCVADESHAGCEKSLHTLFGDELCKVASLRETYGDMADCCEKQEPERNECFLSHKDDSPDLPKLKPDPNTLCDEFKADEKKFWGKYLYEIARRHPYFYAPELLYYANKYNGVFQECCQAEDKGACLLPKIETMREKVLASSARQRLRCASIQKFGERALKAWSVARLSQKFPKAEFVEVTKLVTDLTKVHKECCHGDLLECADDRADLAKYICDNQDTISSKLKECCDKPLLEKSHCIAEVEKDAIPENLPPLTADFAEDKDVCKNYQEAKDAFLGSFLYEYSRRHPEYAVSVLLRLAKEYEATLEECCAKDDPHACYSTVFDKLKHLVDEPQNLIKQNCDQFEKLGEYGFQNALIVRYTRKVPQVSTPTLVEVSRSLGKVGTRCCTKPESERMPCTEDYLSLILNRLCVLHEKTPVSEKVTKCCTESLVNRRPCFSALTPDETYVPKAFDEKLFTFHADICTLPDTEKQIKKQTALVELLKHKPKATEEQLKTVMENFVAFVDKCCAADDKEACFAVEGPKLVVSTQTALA
structure (smiles),measurement,setting,value
CS(C)=O.[Cl-].[Cl-].[Cl-].[Cl-].[Ru+3].c1c[nH+]c[nH]1.c1c[nH]cn1 [NAMI-A],effect on cell adhesion and migration,[1],inhibitory effect in reducing cell adhesion and migration
same,cytotoxicity against cancer cells,[2],minimal cytotoxicity
same,fold lower activity than cisplatin,[2],1000 fold
"O=c1[nH]cc(F)c(=O)[nH]1 [5-FU, 5-fluorouracil, reference compound]",maximum wound closure,[3],39%
same,cell viability by Guava ViaCount,[4],higher percentage of dead and apoptotic cells
same,IC50,[5],2.7 ± 1.9 µM
same,cell cycle arrest,[6],arrested cell cycle at S phase
same,IC50,[7],43.8 ± 2.3 µM
[O]=[V]([O]c1cccc2ccc(/C=N/Nc3nc4ccccc4s3)nc12)[O]c1cccc2ccc(/C=N/Nc3nc4ccccc4s3)nc12 [[VO(HL)2]],solubility and stability in PBS buffered solutions,[8],oxidation of the metal centre likely takes place
same,induced CD bands with BSA,[9],high intensity induced CD bands
